Measured values reported in ChEMBL document CHEMBL4507256 (2021).

Legend:
[1] = molecular target: Dual specificity tyrosine-phosphorylation-regulated kinase 2 (Homo sapiens) (UniProt Q92630); conditions: Compound concentration 1000.0 nM
[2] = molecular target: Serine/threonine-protein kinase PknB (Mycobacterium tuberculosis) (UniProt P9WI81); conditions: Compound concentration 1000.0 nM
[3] = molecular target: Epidermal growth factor receptor (Homo sapiens) (UniProt P00533); conditions: Compound concentration 1000.0 nM
[4] = molecular target: D(2) dopamine receptor (Homo sapiens) (UniProt P14416); conditions: Compound concentration 10.0 uM
[5] = molecular target: STE20-like serine/threonine-protein kinase (Homo sapiens) (UniProt Q9H2G2); conditions: Compound concentration 1000.0 nM
[6] = test system: Serine/threonine-protein kinase B-raf (Homo sapiens), P15056 [V600E]; conditions: Compound concentration 1000.0 nM
[7] = molecular target: Serine/threonine-protein kinase RIO2 (Homo sapiens) (UniProt Q9BVS4); conditions: Compound concentration 1000.0 nM
[8] = molecular target: Serine/threonine-protein kinase Nek1 (Homo sapiens) (UniProt Q96PY6); conditions: Compound concentration 1000.0 nM
[9] = molecular target: Serine/threonine-protein kinase MRCK gamma (Homo sapiens) (UniProt Q6DT37); conditions: Compound concentration 1000.0 nM
[10] = molecular target: Delta-type opioid receptor (Homo sapiens) (UniProt P41143); conditions: Compound concentration 10.0 uM
[11] = molecular target: Proto-oncogene tyrosine-protein kinase Src (Homo sapiens) (UniProt P12931); conditions: Compound concentration 1000.0 nM
[12] = molecular target: Myosin light chain kinase 2, skeletal/cardiac muscle (Homo sapiens) (UniProt Q9H1R3); conditions: Compound concentration 1000.0 nM
[13] = molecular target: Interleukin-1 receptor-associated kinase 3 (Homo sapiens) (UniProt Q9Y616); conditions: Compound concentration 1000.0 nM
[14] = molecular target: Serine/threonine-protein kinase 16 (Homo sapiens) (UniProt O75716); conditions: Compound concentration 1000.0 nM
[15] = molecular target: T1, Muscarinic acetylcholine receptor M1 (Homo sapiens) (UniProt P11229); conditions: Compound concentration 10.0 uM
T1 sequence (whole entry): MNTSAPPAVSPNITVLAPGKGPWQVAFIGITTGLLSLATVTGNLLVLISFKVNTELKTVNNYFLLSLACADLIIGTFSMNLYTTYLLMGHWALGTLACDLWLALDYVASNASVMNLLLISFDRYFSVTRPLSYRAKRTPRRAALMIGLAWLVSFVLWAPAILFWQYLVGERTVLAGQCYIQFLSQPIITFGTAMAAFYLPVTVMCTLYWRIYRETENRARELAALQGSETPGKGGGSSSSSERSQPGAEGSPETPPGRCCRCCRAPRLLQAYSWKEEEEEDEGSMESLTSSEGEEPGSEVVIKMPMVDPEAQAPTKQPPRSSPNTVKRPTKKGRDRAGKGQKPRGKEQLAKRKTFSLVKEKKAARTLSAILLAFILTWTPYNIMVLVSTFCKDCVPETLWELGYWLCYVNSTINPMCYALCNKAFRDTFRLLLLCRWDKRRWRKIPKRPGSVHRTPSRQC

[16] = molecular target: Cyclin-dependent kinase 9 (Homo sapiens) (UniProt P50750); conditions: Compound concentration 1000.0 nM
[17] = molecular target: 5-hydroxytryptamine receptor 1B (Homo sapiens) (UniProt P28222); conditions: Compound concentration 10.0 uM
[18] = molecular target: Tyrosine-protein kinase Srms (Homo sapiens) (UniProt Q9H3Y6); conditions: Compound concentration 1000.0 nM
[19] = test system: Epidermal growth factor receptor (Homo sapiens), P00533 [L858R,T790M]; conditions: Compound concentration 1000.0 nM
[20] = test system: Phosphatidylinositol 4,5-bisphosphate 3-kinase catalytic subunit alpha isoform (Homo sapiens), P42336 [H1047L]; conditions: Compound concentration 1000.0 nM
[21] = molecular target: 5-hydroxytryptamine receptor 6 (Homo sapiens) (UniProt P50406); conditions: Compound concentration 10.0 uM
[22] = molecular target: Tyrosine-protein kinase Fes/Fps (Homo sapiens) (UniProt P07332); conditions: Compound concentration 1000.0 nM
[23] = molecular target: 5-hydroxytryptamine receptor 5A (Homo sapiens) (UniProt P47898); conditions: Compound concentration 10.0 uM
[24] = molecular target: Focal adhesion kinase 1 (Homo sapiens) (UniProt Q05397); conditions: Compound concentration 1000.0 nM
[25] = molecular target: Mitogen-activated protein kinase kinase kinase 20 (Homo sapiens) (UniProt Q9NYL2); conditions: Compound concentration 1000.0 nM
[26] = molecular target: Mitogen-activated protein kinase kinase kinase kinase 5 (Homo sapiens) (UniProt Q9Y4K4); conditions: Compound concentration 1000.0 nM
[27] = molecular target: Histamine H1 receptor (Homo sapiens) (UniProt P35367); conditions: Compound concentration 10.0 uM
[28] = molecular target: Serine/threonine-protein kinase 25 (Homo sapiens) (UniProt O00506); conditions: Compound concentration 1000.0 nM
[29] = molecular target: 5-hydroxytryptamine receptor 1E (Homo sapiens) (UniProt P28566); conditions: Compound concentration 10.0 uM
[30] = molecular target: RAC-beta serine/threonine-protein kinase (Homo sapiens) (UniProt P31751); conditions: Compound concentration 1000.0 nM
[31] = molecular target: Serine/threonine-protein kinase WNK3 (Homo sapiens) (UniProt Q9BYP7); conditions: Compound concentration 1000.0 nM
[32] = molecular target: 5-hydroxytryptamine receptor 1A (Homo sapiens) (UniProt P08908); conditions: Compound concentration 10.0 uM
[33] = molecular target: Homeodomain-interacting protein kinase 2 (Homo sapiens) (UniProt Q9H2X6); conditions: Compound concentration 1000.0 nM
[34] = molecular target: Cyclin-dependent kinase-like 5 (Homo sapiens) (UniProt O76039); conditions: Compound concentration 1000.0 nM
[35] = molecular target: Serine/threonine-protein kinase ICK (Homo sapiens) (UniProt Q9UPZ9); conditions: Compound concentration 1000.0 nM
[36] = molecular target: Mitogen-activated protein kinase kinase kinase 14 (Homo sapiens) (UniProt Q99558); conditions: Compound concentration 1000.0 nM
[37] = test system: Hepatocyte growth factor receptor (Homo sapiens), P08581 [M1250T]; conditions: Compound concentration 1000.0 nM
[38] = molecular target: Ephrin type-A receptor 2 (Homo sapiens) (UniProt P29317); conditions: Compound concentration 1000.0 nM
[39] = test system: eIF-2-alpha kinase GCN2 (Homo sapiens), Q9P2K8 [S808G]; conditions: Compound concentration 1000.0 nM

Chain of Cyclin-dependent kinase-like 5 (Homo sapiens) (O76039 whole entry): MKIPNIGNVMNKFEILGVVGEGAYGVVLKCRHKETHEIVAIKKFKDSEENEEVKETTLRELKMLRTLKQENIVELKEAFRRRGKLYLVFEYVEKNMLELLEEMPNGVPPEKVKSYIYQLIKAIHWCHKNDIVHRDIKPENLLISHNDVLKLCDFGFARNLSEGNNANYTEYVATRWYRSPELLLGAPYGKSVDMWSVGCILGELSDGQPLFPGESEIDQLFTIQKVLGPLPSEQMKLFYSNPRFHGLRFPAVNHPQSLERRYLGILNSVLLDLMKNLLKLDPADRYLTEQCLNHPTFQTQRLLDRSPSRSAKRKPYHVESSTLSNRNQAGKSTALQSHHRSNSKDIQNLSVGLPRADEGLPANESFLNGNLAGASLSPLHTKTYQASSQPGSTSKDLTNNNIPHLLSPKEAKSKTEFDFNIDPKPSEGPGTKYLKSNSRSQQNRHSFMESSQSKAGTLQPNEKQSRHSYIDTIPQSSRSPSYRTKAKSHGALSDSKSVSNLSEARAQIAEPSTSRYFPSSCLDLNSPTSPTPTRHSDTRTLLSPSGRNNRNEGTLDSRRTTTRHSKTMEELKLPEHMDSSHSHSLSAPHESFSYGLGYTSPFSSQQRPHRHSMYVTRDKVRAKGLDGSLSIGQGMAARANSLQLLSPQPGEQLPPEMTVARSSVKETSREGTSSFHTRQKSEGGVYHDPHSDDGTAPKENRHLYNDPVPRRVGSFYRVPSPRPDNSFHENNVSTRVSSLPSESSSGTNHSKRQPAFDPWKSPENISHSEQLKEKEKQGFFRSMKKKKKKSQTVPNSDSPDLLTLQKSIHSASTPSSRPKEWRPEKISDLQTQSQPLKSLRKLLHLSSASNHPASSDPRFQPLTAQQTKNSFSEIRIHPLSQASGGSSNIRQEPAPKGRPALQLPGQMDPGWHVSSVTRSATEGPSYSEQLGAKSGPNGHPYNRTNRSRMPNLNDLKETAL
Chain of Mitogen-activated protein kinase kinase kinase kinase 5 (Homo sapiens) (Q9Y4K4 whole entry, looked up): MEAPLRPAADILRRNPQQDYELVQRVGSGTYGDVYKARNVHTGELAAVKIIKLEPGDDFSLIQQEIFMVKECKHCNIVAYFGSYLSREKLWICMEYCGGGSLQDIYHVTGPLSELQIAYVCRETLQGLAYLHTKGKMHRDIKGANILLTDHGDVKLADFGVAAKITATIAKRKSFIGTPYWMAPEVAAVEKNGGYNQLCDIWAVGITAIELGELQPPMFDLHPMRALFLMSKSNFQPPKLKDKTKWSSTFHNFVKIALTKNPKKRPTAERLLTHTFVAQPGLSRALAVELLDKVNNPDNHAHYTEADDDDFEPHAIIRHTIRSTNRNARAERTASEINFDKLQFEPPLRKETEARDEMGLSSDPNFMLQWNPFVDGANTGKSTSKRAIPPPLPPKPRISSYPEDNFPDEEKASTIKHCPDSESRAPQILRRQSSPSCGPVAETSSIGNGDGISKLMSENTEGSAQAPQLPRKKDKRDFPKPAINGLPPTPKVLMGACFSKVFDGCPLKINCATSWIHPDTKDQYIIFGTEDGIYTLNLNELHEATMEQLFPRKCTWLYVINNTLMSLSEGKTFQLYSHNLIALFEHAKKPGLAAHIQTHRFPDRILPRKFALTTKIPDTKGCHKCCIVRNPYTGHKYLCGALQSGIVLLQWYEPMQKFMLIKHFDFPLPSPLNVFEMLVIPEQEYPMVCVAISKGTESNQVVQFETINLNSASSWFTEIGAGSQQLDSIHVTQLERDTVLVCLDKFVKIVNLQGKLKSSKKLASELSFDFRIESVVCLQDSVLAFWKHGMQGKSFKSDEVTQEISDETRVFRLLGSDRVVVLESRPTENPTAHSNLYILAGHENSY
Chain of Dual specificity tyrosine-phosphorylation-regulated kinase 2 (Homo sapiens) (Q92630 whole entry): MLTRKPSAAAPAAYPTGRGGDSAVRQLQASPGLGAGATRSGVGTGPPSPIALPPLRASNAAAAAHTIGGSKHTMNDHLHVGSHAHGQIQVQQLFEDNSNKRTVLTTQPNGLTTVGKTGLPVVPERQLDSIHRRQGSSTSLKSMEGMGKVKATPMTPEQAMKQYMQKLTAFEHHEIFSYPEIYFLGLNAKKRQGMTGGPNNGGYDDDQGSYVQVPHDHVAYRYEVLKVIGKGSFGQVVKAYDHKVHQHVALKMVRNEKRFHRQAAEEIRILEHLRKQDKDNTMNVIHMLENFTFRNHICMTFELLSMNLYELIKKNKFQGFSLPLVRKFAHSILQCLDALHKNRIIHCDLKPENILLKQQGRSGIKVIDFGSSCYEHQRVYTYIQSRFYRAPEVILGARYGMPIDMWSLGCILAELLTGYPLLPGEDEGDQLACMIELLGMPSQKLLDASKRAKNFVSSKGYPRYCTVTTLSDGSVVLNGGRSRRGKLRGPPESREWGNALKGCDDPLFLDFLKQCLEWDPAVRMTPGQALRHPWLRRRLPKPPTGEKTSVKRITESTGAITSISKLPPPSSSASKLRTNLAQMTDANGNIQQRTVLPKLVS
Chain of Serine/threonine-protein kinase WNK3 (Homo sapiens) (Q9BYP7 whole entry): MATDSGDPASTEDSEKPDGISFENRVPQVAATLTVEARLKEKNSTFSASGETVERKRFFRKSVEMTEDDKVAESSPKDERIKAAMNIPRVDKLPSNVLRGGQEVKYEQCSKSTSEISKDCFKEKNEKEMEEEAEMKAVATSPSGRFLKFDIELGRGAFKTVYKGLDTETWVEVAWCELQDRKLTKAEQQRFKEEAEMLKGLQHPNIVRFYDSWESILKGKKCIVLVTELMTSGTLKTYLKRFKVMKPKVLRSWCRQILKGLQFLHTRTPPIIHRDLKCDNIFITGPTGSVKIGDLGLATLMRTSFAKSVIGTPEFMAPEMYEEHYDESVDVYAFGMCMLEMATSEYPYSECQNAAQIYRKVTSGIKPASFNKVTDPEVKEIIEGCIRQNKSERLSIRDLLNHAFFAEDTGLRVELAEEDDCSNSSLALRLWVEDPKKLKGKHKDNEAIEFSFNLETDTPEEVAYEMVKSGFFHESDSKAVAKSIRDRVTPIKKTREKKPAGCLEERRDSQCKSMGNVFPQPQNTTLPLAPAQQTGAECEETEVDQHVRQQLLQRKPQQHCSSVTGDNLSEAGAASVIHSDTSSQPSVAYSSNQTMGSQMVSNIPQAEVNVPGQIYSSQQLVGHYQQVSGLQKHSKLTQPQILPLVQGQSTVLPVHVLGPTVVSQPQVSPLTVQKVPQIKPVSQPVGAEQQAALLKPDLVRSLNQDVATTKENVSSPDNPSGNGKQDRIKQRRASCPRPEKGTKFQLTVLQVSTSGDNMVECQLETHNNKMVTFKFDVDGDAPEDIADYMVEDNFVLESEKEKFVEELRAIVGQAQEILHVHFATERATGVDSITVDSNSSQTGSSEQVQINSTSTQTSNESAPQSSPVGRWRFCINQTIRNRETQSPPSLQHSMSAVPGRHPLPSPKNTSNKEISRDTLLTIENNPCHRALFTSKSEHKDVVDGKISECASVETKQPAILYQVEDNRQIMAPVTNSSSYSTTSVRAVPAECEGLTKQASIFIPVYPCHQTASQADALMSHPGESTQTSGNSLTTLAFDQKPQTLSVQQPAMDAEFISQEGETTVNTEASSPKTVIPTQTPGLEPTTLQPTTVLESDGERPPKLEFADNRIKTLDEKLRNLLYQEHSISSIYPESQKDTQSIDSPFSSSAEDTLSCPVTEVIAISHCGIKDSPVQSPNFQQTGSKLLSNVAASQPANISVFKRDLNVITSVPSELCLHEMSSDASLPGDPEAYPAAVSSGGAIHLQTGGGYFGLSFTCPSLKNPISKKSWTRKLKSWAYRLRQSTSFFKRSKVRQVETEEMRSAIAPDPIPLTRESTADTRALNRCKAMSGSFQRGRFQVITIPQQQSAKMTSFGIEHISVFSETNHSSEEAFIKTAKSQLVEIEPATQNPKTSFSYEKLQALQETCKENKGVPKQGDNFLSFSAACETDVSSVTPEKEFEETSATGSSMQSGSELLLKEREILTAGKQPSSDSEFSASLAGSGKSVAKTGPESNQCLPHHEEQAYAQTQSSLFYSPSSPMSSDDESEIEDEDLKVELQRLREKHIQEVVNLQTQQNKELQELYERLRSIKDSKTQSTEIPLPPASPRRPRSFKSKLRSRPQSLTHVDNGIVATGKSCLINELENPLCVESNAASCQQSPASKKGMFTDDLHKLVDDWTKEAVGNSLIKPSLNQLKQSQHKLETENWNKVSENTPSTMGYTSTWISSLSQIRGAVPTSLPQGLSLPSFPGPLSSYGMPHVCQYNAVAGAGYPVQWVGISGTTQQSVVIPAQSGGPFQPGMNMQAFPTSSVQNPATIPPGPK
Chain of Cyclin-dependent kinase 9 (Homo sapiens) (P50750 whole entry): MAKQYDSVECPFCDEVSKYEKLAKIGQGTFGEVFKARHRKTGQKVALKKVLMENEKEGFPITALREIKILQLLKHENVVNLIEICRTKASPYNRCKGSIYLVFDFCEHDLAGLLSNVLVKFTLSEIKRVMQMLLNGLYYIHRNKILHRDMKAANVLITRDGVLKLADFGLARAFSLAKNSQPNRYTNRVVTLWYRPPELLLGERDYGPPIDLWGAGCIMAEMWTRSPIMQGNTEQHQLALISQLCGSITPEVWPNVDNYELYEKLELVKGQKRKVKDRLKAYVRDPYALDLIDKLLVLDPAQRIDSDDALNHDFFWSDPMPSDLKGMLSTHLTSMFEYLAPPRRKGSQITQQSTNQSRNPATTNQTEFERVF
Chain of 5-hydroxytryptamine receptor 6 (Homo sapiens) (P50406 whole entry): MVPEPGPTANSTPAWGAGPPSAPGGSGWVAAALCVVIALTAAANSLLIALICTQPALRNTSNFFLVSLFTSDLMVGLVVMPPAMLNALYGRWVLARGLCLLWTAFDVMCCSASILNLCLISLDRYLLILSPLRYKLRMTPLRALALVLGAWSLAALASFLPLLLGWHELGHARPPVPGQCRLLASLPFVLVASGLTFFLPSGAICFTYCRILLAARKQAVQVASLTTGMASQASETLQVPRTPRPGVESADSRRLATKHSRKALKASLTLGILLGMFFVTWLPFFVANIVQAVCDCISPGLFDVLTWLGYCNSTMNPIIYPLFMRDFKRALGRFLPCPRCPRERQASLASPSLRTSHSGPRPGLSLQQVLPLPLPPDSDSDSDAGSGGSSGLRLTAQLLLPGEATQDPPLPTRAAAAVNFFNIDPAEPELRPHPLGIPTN

CCC(=N\O)/C(C)=C/c1ccc(F)c(C)c1 [A-226]
inactive: residual activity [1] 87% | residual activity [2] 92% | residual activity [3] 100% | inhibition [4] -6.57% | residual activity [5] 93% | residual activity [6] 100% | residual activity [7] 73% | residual activity [8] 100% | residual activity [9] 85% | inhibition [10] 2.53% | residual activity [11] 98% | residual activity [12] 78% | residual activity [13] 94% | residual activity [14] 84% | inhibition [15] -2.46% | residual activity [16] 96% | inhibition [17] -1.04% | residual activity [18] 100% | residual activity [19] 100% | residual activity [20] 100% | inhibition [21] -3.93% | residual activity [22] 93% | inhibition [23] -3.24% | residual activity [24] 100% | residual activity [25] 76% | residual activity [26] 100% | inhibition [27] 15.2% | residual activity [28] 100% | inhibition [29] 4.47% | residual activity [30] 84% | residual activity [31] 100% | inhibition [32] 1.12% | residual activity [33] 100% | residual activity [34] 100% | residual activity [35] 97% | residual activity [36] 100% | residual activity [37] 88% | residual activity [38] 89% | residual activity [39] 50%

CCC(=N\O)/C(C)=C/c1ccc(F)cc1 [A-079]
inactive: residual activity [1] 94% | residual activity [2] 100% | residual activity [3] 60% | inhibition [4] -8.66% | residual activity [5] 91% | residual activity [6] 77% | residual activity [7] 86% | residual activity [8] 94% | residual activity [9] 73% | inhibition [10] -7.17% | residual activity [11] 91% | residual activity [12] 81% | residual activity [13] 100% | residual activity [14] 97% | inhibition [15] 15.2% | residual activity [16] 93% | inhibition [17] 7.88% | residual activity [18] 76% | residual activity [19] 100% | residual activity [20] 100% | inhibition [21] 15.6% | residual activity [22] 73% | inhibition [23] 3.01% | residual activity [24] 82% | residual activity [25] 84% | residual activity [26] 80% | inhibition [27] 9.24% | residual activity [28] 86% | inhibition [29] 6.66% | residual activity [30] 88% | residual activity [31] 75% | inhibition [32] 6.81% | residual activity [33] 100% | residual activity [34] 82% | residual activity [35] 100% | residual activity [36] 84% | residual activity [37] 76% | residual activity [38] 84% | residual activity [39] 70%
